# Test results published in publication PMC13198257, “An aerosolized dual-action autotaxin inhibitor-PPARγ agonist for the treatment of pulmonary fibrosis” (Cell Reports Medicine, 2026).
# Test system: lung gene expression
# Test: RNA sequencing of lung tissue (BLM/EL244 vs BLM)
# Type: in vivo, mouse
# Description: RNA quality was assessed using an Agilent TapeStation 4150 with the High Sensitivity […] ScreenTape (Agilent), according to the manufacturer’s protocols. For library preparation, the QuantSeq 3’mRNA-Seq Library Prep Kit (Lexogen) was used according to manufacturer’s instructions. Briefly, 500 ng of RNA from each sample was used for first-strand synthesis, followed by RNA template removal, and second-strand synthesis initiated by random primers. In-line barcodes were introduced at this step, and this was followed by magnetic bead-based purification. The resulting libraries were amplified for 15 cycles and re-purified, with quantity and quality assessed on a Qubit 4 Fluorometer with the Invitrogen Qubit dsDNA HS Assay and an Agilent Tapestation 4150 with the High Sensitivity D1000 assay kit, respectively. The quantified libraries were pooled equimolarly; 50ng of total library mix was used for Adapter Conversion PCR Amplification using the Universal Library Conversion Kit (App-A), Version: V1.0 (MGI Tech Co., Ltd.), according to the manufacturer’s instructions.
# The quantity and quality of the purified adapter conversion PCR (AC-PCR) product were evaluated on a Qubit 4 Fluorometer with the Invitrogen Qubit dsDNA HS Assay and on an Agilent Tapestation 4150 with the High Sensitivity D1000 assay kit, respectively. This was followed by DNA denaturation, Single-Strand Circularisation, Enzymatic Digestion, Enzymatic Digestion Product Cleanup and Quality Control steps on 1 pmol of AC-PCR product, according to the Universal Library Conversion Kit (App-A) User Manual (Version: A3).
# Finally, 60 fmol of ssCirDNA were used for DNB preparation and sequencing on a DNBSEQ-G400 platform at the BSRC Alexander Fleming Genomics Facility, using a G400 App-A FCS SE100 High-throughput Sequencing Set (MGI Tech Co., Ltd.), according to the manufacturer’s instructions.
# Alignment of the FASTQ files was performed against the mouse genome build mm10 using a custom Bash script.[143] Read counting on the 3′ UTRs and differential expression analysis were conducted using the metaseqR2 bioconductor package.[144] Genes corresponding to the following biotypes were excluded: polymorphic_pseudogene, processed_transcript, pseudogene, IG_V_pseudogene, misc_RNA, IG_C_gene, IG_J_gene, IG_D_gene, IG_LV_gene, TR_V_gene, TR_V_pseudogene, TEC, and processed_pseudogene. Gene counts were normalized with DESEQ[145] through metaseqR2. Genes with more than 10 counts in at least 50% of the samples were kept for further processing. For differential expression analysis, the PANDORA algorithm[146] was used to estimate a meta p-value integrating the results from the DESEQ, DESEQ2,[147] edgeR,[148] limma,[149] NBPSeq,[150] and NOISeq[151] algorithms. All additional parameters were set to default values.
# Pathway enrichment analysis was performed for the Gene Ontology Biological process (BP) and Molecular Function (MF) terms through GeneCodis 4.[152] The volcano plots, scatterplots, Venn diagrams, and dot plots were generated using the ggplot2 Bioconductor package.
structure (smiles),measurement,setting,value
"O=C1NC(=O)C(Cc2ccc(OCCC3CCN(C(=O)OCc4cc(Cl)cc(Cl)c4)CC3)cc2)S1 (stereo not drawn) [EL244, 3,5-dichlorobenzyl 4-(2-(4-((2,4-dioxothiazolidin-5-yl)methyl)phenoxy)ethyl)piperidine-1-carboxylate]",Igfbp3 log2 nFC BLM/EL244 vs BLM,"DEG Igfbp3, nFC: normalised fold change",1.75
same,Igfbp6 log2 nFC BLM/EL244 vs BLM,"DEG Igfbp6, nFC: normalised fold change",1.68
same,Il6ra log2 nFC BLM/EL244 vs BLM,"DEG Il6ra, nFC: normalised fold change",0.84
same,log2 nFC BLM/EL244 vs BLM,DEG Ildr2,-1.32
same,Inmt log2 nFC BLM/EL244 vs BLM,"DEG Inmt, nFC: normalised fold change",1.34
same,Iqca log2 nFC BLM/EL244 vs BLM,"DEG Iqca, nFC: normalised fold change",0.87
same,log2 nFC BLM/EL244 vs BLM,DEG Iqgap3,-2.41
same,Itga2b log2 nFC BLM/EL244 vs BLM,"DEG Itga2b, nFC: normalised fold change",1.10
same,Itga8 log2 nFC BLM/EL244 vs BLM,"DEG Itga8, nFC: normalised fold change",0.88
same,log2 nFC BLM/EL244 vs BLM,DEG Itm2a,-1.25
same,Jdp2 log2 nFC BLM/EL244 vs BLM,"DEG Jdp2, nFC: normalised fold change",0.71
same,Kcne2 log2 nFC BLM/EL244 vs BLM,"DEG Kcne2, nFC: normalised fold change",1.32
same,log2 nFC BLM/EL244 vs BLM,DEG Kcnn4,-1.27
same,log2 nFC BLM/EL244 vs BLM,DEG Kdelr3,-1.25
same,log2 nFC BLM/EL244 vs BLM,DEG Kif14,-1.56
same,log2 nFC BLM/EL244 vs BLM,DEG Kif20a,-2.52
same,Klf3 log2 nFC BLM/EL244 vs BLM,"DEG Klf3, nFC: normalised fold change",0.69
same,Klf4 log2 nFC BLM/EL244 vs BLM,"DEG Klf4, nFC: normalised fold change",0.72
same,Klf9 log2 nFC BLM/EL244 vs BLM,"DEG Klf9, nFC: normalised fold change",0.85
same,Klf15 log2 nFC BLM/EL244 vs BLM,"DEG Klf15, nFC: normalised fold change",1.42
same,Klrc1 log2 nFC BLM/EL244 vs BLM,"DEG Klrc1, nFC: normalised fold change",1.38
same,Kndc1 log2 nFC BLM/EL244 vs BLM,"DEG Kndc1, nFC: normalised fold change",1.05
same,log2 nFC BLM/EL244 vs BLM,DEG Knstrn,-2.52
same,log2 nFC BLM/EL244 vs BLM,DEG Kntc1,-1.39
same,Krt79 log2 nFC BLM/EL244 vs BLM,"DEG Krt79, nFC: normalised fold change",1.75
same,log2 nFC BLM/EL244 vs BLM,DEG Lama1,-2.43
same,Ldb3 log2 nFC BLM/EL244 vs BLM,"DEG Ldb3, nFC: normalised fold change",1.52
same,Lncpint log2 nFC BLM/EL244 vs BLM,"DEG Lncpint, nFC: normalised fold change",1.06
same,Lrat log2 nFC BLM/EL244 vs BLM,"DEG Lrat, nFC: normalised fold change",1.15
same,Lrrc74b log2 nFC BLM/EL244 vs BLM,"DEG Lrrc74b, nFC: normalised fold change",1.02
same,log2 nFC BLM/EL244 vs BLM,DEG Ltbp2,-1.44
same,Ltbp4 log2 nFC BLM/EL244 vs BLM,"DEG Ltbp4, nFC: normalised fold change",0.81
same,log2 nFC BLM/EL244 vs BLM,DEG Lum,-1.32
same,Lyve1 log2 nFC BLM/EL244 vs BLM,"DEG Lyve1, nFC: normalised fold change",0.96
same,Map3k6 log2 nFC BLM/EL244 vs BLM,"DEG Map3k6, nFC: normalised fold change",0.95
same,Mapt log2 nFC BLM/EL244 vs BLM,"DEG Mapt, nFC: normalised fold change",0.89
same,log2 nFC BLM/EL244 vs BLM,DEG Mark1,-1.23
same,log2 nFC BLM/EL244 vs BLM,DEG Matk,-1.42
same,Mb log2 nFC BLM/EL244 vs BLM,"DEG Mb, nFC: normalised fold change",2.27
same,Mcf2l log2 nFC BLM/EL244 vs BLM,"DEG Mcf2l, nFC: normalised fold change",0.95
same,log2 nFC BLM/EL244 vs BLM,DEG Mcm5,-1.33
same,log2 nFC BLM/EL244 vs BLM,DEG Mdk,-1.34
same,Mettl7a1 log2 nFC BLM/EL244 vs BLM,"DEG Mettl7a1, nFC: normalised fold change",0.80
same,Mir29c log2 nFC BLM/EL244 vs BLM,"DEG Mir29c, nFC: normalised fold change",0.89
same,log2 nFC BLM/EL244 vs BLM,DEG Mir147,-1.44
same,Mir6899 log2 nFC BLM/EL244 vs BLM,"DEG Mir6899, nFC: normalised fold change",0.84
same,Mir6979 log2 nFC BLM/EL244 vs BLM,"DEG Mir6979, nFC: normalised fold change",1.18
same,log2 nFC BLM/EL244 vs BLM,DEG Mis18bp1,-1.46
same,Mmp9 log2 nFC BLM/EL244 vs BLM,"DEG Mmp9, nFC: normalised fold change",1.20
same,log2 nFC BLM/EL244 vs BLM,DEG Mmp12,-2.48
same,log2 nFC BLM/EL244 vs BLM,DEG Mmp14,-1.31
same,Mpp3 log2 nFC BLM/EL244 vs BLM,"DEG Mpp3, nFC: normalised fold change",1.65
same,log2 nFC BLM/EL244 vs BLM,DEG Ms4a7,-1.49
same,Ms4a4d log2 nFC BLM/EL244 vs BLM,"DEG Ms4a4d, nFC: normalised fold change",1.15
same,log2 nFC BLM/EL244 vs BLM,DEG Msr1,-1.44
same,Mybpc3 log2 nFC BLM/EL244 vs BLM,"DEG Mybpc3, nFC: normalised fold change",2.06
same,Mybphl log2 nFC BLM/EL244 vs BLM,"DEG Mybphl, nFC: normalised fold change",2.33
